Measured values: patent publication US6596707B2, “Monovalent saccharides and uses thereof” (priority 2001, dated 2003)

Columns and labels:
[1] = Pharmacokinetics of globotriose in mice after IV or oral administration
[2] = target: Shiga-like toxin I (SLT I) (Bacteriophage H30, UniProt P69178)
[3] = target: Shiga-like toxin II (SLT II) (Escherichia phage 933W, UniProt P09386); type: cell-based, E. coli O157:H7
[4] = Toxicity of globotriose administered to mice (previous pharmacokinetic studies)

Sequence of Shiga-like toxin I (SLT I) (P69178 whole entry, looked up): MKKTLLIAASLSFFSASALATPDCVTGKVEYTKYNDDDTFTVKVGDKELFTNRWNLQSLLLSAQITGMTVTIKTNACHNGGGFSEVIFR
Sequence of Shiga-like toxin II (SLT II) (P09386 whole entry, looked up): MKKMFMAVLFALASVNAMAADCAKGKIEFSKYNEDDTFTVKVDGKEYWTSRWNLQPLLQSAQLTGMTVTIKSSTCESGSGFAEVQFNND

SMILES: OC[C@H]1O[C@H](O[C@@H]2[C@H](O)[C@@H](O)[C@H](O[C@H]3[C@H](O)[C@@H](O)C(O)O[C@@H]3CO)O[C@@H]2CO)[C@H](O)[C@@H](O)[C@H]1O (stereo partly drawn) [globotriose, galactose α1,4 galactose β1,4 glucose]
- clearance kinetics ([1]; IV administered): bi-exponential clearance kinetics
- time over which excreted through the kidneys ([1]; IV administered): > 24 h
- bioavailable (oral dose crossed into circulation) ([1]; orally administered): approximately 10%
- excreted in the urine, time post-dose ([1]; orally administered): up to 48 hours
- fate of the majority of orally administered dose ([1]; orally administered): excreted into the feces unmetabolized
- kinetics ([1]; orally administered): bi-exponential kinetics
- inhibition of cell death from SLT I [2]: 52%
- reduction of cytotoxicity (SLT I), toxin pre-attached [2]: 33%
- inhibition of cell death from SLT II [3]: 8%
- toxic effects after intravenous administration ([4]; intravenously 333 mg/kg): no toxic effects
- toxic effects after oral administration ([4]; orally 3333 mg/kg): no toxic effects
